In patent US10138236B2, “Factor xia-inhibiting pyridobenzazepine and pyridobenzazocine derivatives” (BAYER PHARMA AKTIENGESELLSCHAFT, priority 2014, dated 2018):
pIC50: −log10 of the molar value.

Tests used:
[1] = target: human plasma kallikrein (Homo sapiens (Human), UniProt P03952); experiment: Determination of the plasma kallikrein activity; assay type: biochemical; settings: plasma kallikrein from Kordia, substrate H-Pro-Phe-Arg-AMC, fluorescence
Experimental: a.5) Determination of the Plasma Kallikrein Activity
(§1) To determine the plasma kallikrein inhibition of the substances according to the invention, a biochemical test system is used which utilizes the reaction of a peptidic plasma kallikrein substrate to determine the enzymatic activity of human plasma kallikrein. Here, plasma kallikrein cleaves from the peptic plasma kallikrein substrate the C-terminal aminomethylcoumarin (AMC), the fluorescence of which is measured. The determinations are carried out in microtitre plates.
1 μl of the diluted substance solutions is placed into each of the wells of white microtitre plates from Greiner (384 wells). 20 μl of assay buffer (50 mM Tris/HCl pH 7.4; 100 mM sodium chloride solution; 5 mM of calcium chloride solution; 0.1% of bovine serum albumin) and 20 μl of plasma kallikrein from Kordia (0.6 nM in assay buffer) are then added successively. After 15 min of incubation, the enzyme reaction is started by addition of 20 μl of the substrate H-Pro-Phe-Arg-AMC dissolved in assay buffer (10 μM in assay buffer) from Bachem, the mixture is incubated at room temperature (22° C.) for 30 min and fluorescence is then measured (excitation: 360 nm, emission: 460 nm). The measured emissions of the test batches with test substance are compared to those of control batches without test substance (only dimethyl sulphoxide instead of test substance in dimethyl sulphoxide), and IC50 values are calculated from the concentration/activity relationships.

[2] = target: human factor XIa (Homo sapiens (Human), UniProt P03951); experiment: Measurement of FXIa inhibition; assay type: biochemical; settings: factor XIa from Kordia, substrate Boc-Glu(OBzl)-Ala-Arg-AMC, fluorescence
Experimental: a.1) Measurement of FXIa Inhibition
as §1, with “The factor XIa” for “To determine the plasma kallikrein”, “invention is determined using” for “invention,”, “system” for “system is used”, “factor XIa” for “plasma kallikrein”, “factor XIa.” for “plasma kallikrein.”
1 μl of the diluted substance solutions is placed into each of the wells of white microtitre plates from Greiner (384 wells). […] After 15 min of incubation, the enzyme reaction is started by addition of 20 μl of the factor XIa substrate Boc-Glu(OBzl)-Ala-Arg-AMC dissolved in assay buffer (10 μM in assay buffer) from Bachem, the mixture is incubated at room temperature (22° C.) for 30 min and fluorescence is then measured (excitation: 360 nm, emission: 460 nm). The measured emissions of the test batches with test substance are compared to those of control batches without test substance (only dimethyl sulphoxide instead of test substance in dimethyl sulphoxide), and IC50 values are calculated from the concentration/activity relationships.

Chain of human factor XIa (P03951 388-625): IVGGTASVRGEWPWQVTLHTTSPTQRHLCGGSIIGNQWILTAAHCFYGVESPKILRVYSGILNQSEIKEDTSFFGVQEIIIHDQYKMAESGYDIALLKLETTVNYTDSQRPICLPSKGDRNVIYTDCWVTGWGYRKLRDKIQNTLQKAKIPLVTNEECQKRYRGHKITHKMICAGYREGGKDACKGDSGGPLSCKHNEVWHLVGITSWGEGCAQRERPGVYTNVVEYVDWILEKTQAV
Chain of human factor XIa (P03951 19-387 partner): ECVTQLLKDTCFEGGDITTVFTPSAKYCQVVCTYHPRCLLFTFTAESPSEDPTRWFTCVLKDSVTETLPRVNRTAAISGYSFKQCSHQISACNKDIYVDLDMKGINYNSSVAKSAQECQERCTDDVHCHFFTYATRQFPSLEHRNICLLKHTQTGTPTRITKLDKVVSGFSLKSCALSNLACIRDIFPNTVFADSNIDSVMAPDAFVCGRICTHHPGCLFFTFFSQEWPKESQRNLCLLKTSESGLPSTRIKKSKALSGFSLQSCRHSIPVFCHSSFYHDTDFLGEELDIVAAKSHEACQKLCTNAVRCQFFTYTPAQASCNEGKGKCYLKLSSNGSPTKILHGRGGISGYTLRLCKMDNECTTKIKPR
Chain of human plasma kallikrein (P03952 391-638): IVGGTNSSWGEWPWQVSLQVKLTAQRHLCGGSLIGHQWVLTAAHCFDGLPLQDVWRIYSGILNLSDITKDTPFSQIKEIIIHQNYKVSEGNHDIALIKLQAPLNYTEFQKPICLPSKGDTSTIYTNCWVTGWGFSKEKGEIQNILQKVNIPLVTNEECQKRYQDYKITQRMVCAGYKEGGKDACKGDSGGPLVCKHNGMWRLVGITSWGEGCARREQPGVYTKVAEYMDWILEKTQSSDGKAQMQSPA
Chain of human plasma kallikrein (P03952 20-390 partner): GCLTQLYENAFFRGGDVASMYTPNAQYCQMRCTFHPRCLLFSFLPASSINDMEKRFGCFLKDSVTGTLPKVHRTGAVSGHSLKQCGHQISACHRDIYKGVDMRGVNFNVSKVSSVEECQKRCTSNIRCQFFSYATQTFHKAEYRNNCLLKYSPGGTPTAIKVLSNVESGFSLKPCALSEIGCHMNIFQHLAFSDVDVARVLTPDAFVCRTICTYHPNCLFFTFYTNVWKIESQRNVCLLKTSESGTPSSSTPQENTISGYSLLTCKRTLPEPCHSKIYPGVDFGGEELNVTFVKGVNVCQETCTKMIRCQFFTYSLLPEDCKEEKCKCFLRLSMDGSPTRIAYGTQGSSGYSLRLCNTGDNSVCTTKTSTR

CO[C@H]1CC[C@H](CC(C(=O)Nc2ccc(C(N)=O)c(F)c2)n2cc3c(cc2=O)-c2cc(Cl)ccc2CC2(CC2)NC3=O)CC1 (stereo partly drawn) [Example 26, 4-{[2-(11′-Chloro-2′,5′-dioxo-2′,5′,6′,8′-tetrahydro-3′H-spiro[cyclopropane-1,7′-pyrido[3,4-e][3]benzazocine]-3′-yl)-3-(trans-4-methoxycyclohexyl)propanoyl]amino}-2-fluorobenzamide]
pIC50 [1]: 6.13 | pIC50 [2]: 7.47

COCCC(C(=O)Nc1csc(C(=O)O)c1)n1cc2c(cc1=O)-c1cc(Cl)ccc1CC1(CC1)NC2=O (stereo not drawn) [Example 24, 4-{[2-(11′-Chloro-2′,5′-dioxo-2′,5′,6′,8′-tetrahydro-3′H-spiro[cyclopropane-1,7′-pyrido[3,4-e][3]benzazocine]-3′-yl)-4-methoxybutanoyl]amino}thiophene-2-carboxylic acid]
pIC50 [1]: 6.10 | pIC50 [2]: 7.46

O=C1NC2(CC2)Cc2ccc(Cl)cc2-c2cc(=O)n(C(Cc3ccccc3)C(=O)Nc3ccc4[nH]c(=O)[nH]c4c3)cc21 (stereo not drawn) [Example 29, 2-(11′-Chloro-2′,5′-dioxo-2′,5′,6′,8′-tetrahydro-3′H-spiro[cyclopropane-1,7′-pyrido[3,4-e][3]benzazocine]-3′-yl)-N-(2-oxo-2,3-dihydro-1H-benzimidazol-5-yl)-3-phenylpropanamide]
pIC50 [1]: 7.38 | pIC50 [2]: 8.35

COCCC(C(=O)Nc1ccc2c(=O)n(C)[nH]c2c1)n1cc2c(cc1=O)-c1cc(Cl)ccc1CC1(CC1)NC2=O (stereo not drawn) [Example 19, 2-(11′-Chloro-2′,5′-dioxo-2′,5′,6′,8′-tetrahydro-3′H-spiro[cyclopropane-1,7′-pyrido[3,4-e][3]benzazocine]-3′-yl)-4-methoxy-N-(2-methyl-3-oxo-2,3-dihydro-1H-indazol-6-yl)butanamide]
pIC50 [1]: 6.64 | pIC50 [2]: 8.08

COCCC(C(=O)Nc1ccc2nn(C)cc2c1)n1cc2c(cc1=O)-c1cc(Cl)ccc1CC(CF)NC2=O (stereo not drawn) [Example 31, 2-[11-Chloro-7-(fluoromethyl)-2,5-dioxo-5,6,7,8-tetrahydropyrido[3,4-e][3]benzazocin-3(2H)-yl]-4-methoxy-N-(2-methyl-2H-indazol-5-yl)butanamide]
pIC50 [1]: 7.38 | pIC50 [2]: 8.55

COCCC(C(=O)Nc1ccc2[nH]c(=O)[nH]c2c1)n1cc2c(cc1=O)-c1cc(Cl)ccc1CC1(CC1)NC2=O (stereo not drawn) [Example 14, 2-(11′-Chloro-2′,5′-dioxo-2′,5′,6′,8′-tetrahydro-3′H-spiro[cyclopropane-1,7′-pyrido[3,4-e][3]benzazocine]-3′-yl)-4-methoxy-N-(2-oxo-2,3-dihydro-1H-benzimidazol-5-yl)butanamide]
pIC50 [1]: 6.64 | pIC50 [2]: 7.74

COCCC(C(=O)Nc1ccc(C(N)=O)c(F)c1)n1cc2c(cc1=O)-c1cc(Cl)ccc1CC1(CC1)NC2=O (stereo not drawn) [Example 13, 4-{[2-(11′-Chloro-2′,5′-dioxo-2′,5′,6′,8′-tetrahydro-3′H-spiro[cyclopropane-1,7′-pyrido[3,4-e][3]benzazocine]-3′-yl)-4-methoxybutanoyl]amino}-2-fluorobenzamide]
pIC50 [1]: 6.11 | pIC50 [2]: 7.57

O=C(Cn1cc2c(cc1=O)-c1cc(Cl)ccc1CCNC2=O)Nc1ccc(C(=O)O)cc1 [Example 4, 4-{[(11-Chloro-2,5-dioxo-5,6,7,8-tetrahydropyrido[3,4-e][3]benzazocin-3(2H)-yl)acetyl]amino}benzoic acid]
pIC50 [1]: 4.74 | pIC50 [2]: 6.14

CCC(C(=O)Nc1ccc(C(=O)O)cc1)n1cc2c(cc1=O)-c1cc(Cl)ccc1CCNC2=O (stereo not drawn) [Example 6, 4-{[2-(11-Chloro-2,5-dioxo-5,6,7,8-tetrahydropyrido[3,4-e][3]benzazocin-3(2H)-yl)butanoyl]amino}benzoic acid]
pIC50 [1]: 5.72 | pIC50 [2]: 7.55

CCC(C(=O)Nc1ccc(-c2noc(=O)[nH]2)cc1)n1cc2c(cc1=O)-c1cc(Cl)ccc1CNC2=O (stereo not drawn) [Example 2, 2-(10-Chloro-2,5-dioxo-2,5,6,7-tetrahydro-3H-pyrido[3,4-d][2]benzazepin-3-yl)-N-[4-(5-oxo-4,5-dihydro-1,2,4-oxadiazol-3-yl)phenyl]butanamide]
pIC50 [1]: 5.31 | pIC50 [2]: 6.55

O=C(O)c1ccc(NC(=O)C(Cc2ccccc2)n2cc3c(cc2=O)-c2cc(Cl)ccc2CC2(CC2)NC3=O)cc1 (stereo not drawn) [Example 28, 4-{[2-(11′-Chloro-2′,5′-dioxo-2′,5′,6′,8′-tetrahydro-3′H-spiro[cyclopropane-1,7′-pyrido[3,4-e][3]benzazocine]-3′-yl)-3-phenylpropanoyl]amino}benzoic acid]
pIC50 [1]: 7.26 | pIC50 [2]: 8.74

COCCC(C(=O)Nc1ccc2nn(C)cc2c1)n1cc2c(cc1=O)-c1cc(Cl)ccc1CC1(CC1)NC2=O (stereo not drawn) [Example 15, 2-(11′-Chloro-2′,5′-dioxo-2′,5′,6′,8′-tetrahydro-3′H-spiro[cyclopropane-1,7′-pyrido[3,4-e][3]benzazocine]-3′-yl)-4-methoxy-N-(2-methyl-2H-indazol-5-yl)butanamide]
pIC50 [1]: 6.62 | pIC50 [2]: 8.09
